Reference: the NIST ThermoML archive (doi:10.1016/j.fluid.2006.01.008)

How the values were obtained:
[1] = refractive index (Na D-line) (dimensionless); conditions: 298.15 K; 101.33 kPa; Liquid; Standard Abbe refractometry
[2] = 298.15 K, 101.33 kPa, Liquid
[3] = xn = mol fraction of the nth substance listed; conditions: 298.15 K, 101 kPa, Liquid; for viscosity: Capillary tube (Ostwald / Ubbelohde) method; for speed of sound: Sing-around technique in a fixed-path interferometer; for mass density: Vibrating tube method
[4] = refractive index (Na D-line) (dimensionless); xn = mol fraction of the nth substance listed; conditions: 298.15 K, 101 kPa, Liquid, Standard Abbe refractometry

CCCCCCCC[n+]1ccn(C)c1.F[B-](F)(F)F [1-methyl-3-octylimidazolium tetrafluoroborate]
Conditions	refractive index
[1]	1.43422

[2]
Conditions	mass density [kg/m3]	speed of sound [m/s]	viscosity [mPa·s]
Capillary tube (Ostwald / Ubbelohde) method	–	–	359.9
Sing-around technique in a fixed-path interferometer	–	1491	–
Vibrating tube method	1105.3	–	–

CCCCCCCC[n+]1ccn(C)c1.F[B-](F)(F)F [1-methyl-3-octylimidazolium tetrafluoroborate] + CC(C)O
Conditions	mass density, [3] [kg/m3]	refractive index, [4]	speed of sound, [3] [m/s]	viscosity, [3] [mPa·s]
x1 = 0.0459	826.83	1.38385	1170	2.956
x1 = 0.0892	862.39	1.39059	1198	3.955
x1 = 0.182	921.09	1.40147	1254	7.053
x1 = 0.2506	953.75	1.40743	1291	10.15
x1 = 0.2965	972	1.41077	1312	12.88
x1 = 0.3677	996.08	1.41503	1343	18.27
x1 = 0.4214	1011.52	1.41781	1362	23.79
x1 = 0.4798	1026.24	1.42048	1381	31.66
x1 = 0.5028	1031.53	1.42134	1387	35.48
x1 = 0.6166	1054.39	1.42547	1416	61.95
x1 = 0.7089	1069.7	1.42817	1437	96.3
x1 = 0.7558	1076.59	1.42938	1446	120.5
x1 = 0.8697	1091.33	1.43182	1467	202.6

CCCCCCCC[n+]1ccn(C)c1.F[B-](F)(F)F [1-methyl-3-octylimidazolium tetrafluoroborate] + CCCO
Conditions	mass density, [3] [kg/m3]	refractive index, [4]	speed of sound, [3] [m/s]	viscosity, [3] [mPa·s]
x1 = 0.0473	844.63	1.39108	1232	2.789
x1 = 0.0982	883.64	1.3978	1256	3.942
x1 = 0.2034	943.18	1.40783	1306	7.531
x1 = 0.241	959.69	1.41061	1321	9.169
x1 = 0.2958	980.53	1.41405	1343	12.21
x1 = 0.4007	1012.5	1.41928	1377	20.65
x1 = 0.4355	1021.38	1.42071	1387	24.52
x1 = 0.4988	1035.79	1.42301	1403	33.31
x1 = 0.5506	1046.19	1.42472	1414	43.39
x1 = 0.6165	1057.95	1.42671	1428	59.9
x1 = 0.6778	1067.63	1.42832	1439	79.52
x1 = 0.7828	1081.97	1.43069	1457	130.9
x1 = 0.9118	1096.63	1.43297	1477	238.4
